Measurements published in patent publication US20140135310A1, “SULPHONAMIDE DERIVATIVES OF ALICYCLIC AMINES FOR THE TREATMENT OF CENTRAL NERVOUS SYSTEM DISEASES” (Adamed Sp. z o.o., priority 2011, published 2014).

What was measured:
[1] = target: T1, serotonin transporter (SERT) (Homo sapiens, UniProt P31645); experiment: Radioligand binding assay, serotonin transporter (SERT); settings: for SERT [%] / inhibition at 1 µM: binding assay, test compound 1×10^−6 M
T1 construct: expressed in transfected cells; host or cells: CHO cells
T1 sequence (P31645 whole entry): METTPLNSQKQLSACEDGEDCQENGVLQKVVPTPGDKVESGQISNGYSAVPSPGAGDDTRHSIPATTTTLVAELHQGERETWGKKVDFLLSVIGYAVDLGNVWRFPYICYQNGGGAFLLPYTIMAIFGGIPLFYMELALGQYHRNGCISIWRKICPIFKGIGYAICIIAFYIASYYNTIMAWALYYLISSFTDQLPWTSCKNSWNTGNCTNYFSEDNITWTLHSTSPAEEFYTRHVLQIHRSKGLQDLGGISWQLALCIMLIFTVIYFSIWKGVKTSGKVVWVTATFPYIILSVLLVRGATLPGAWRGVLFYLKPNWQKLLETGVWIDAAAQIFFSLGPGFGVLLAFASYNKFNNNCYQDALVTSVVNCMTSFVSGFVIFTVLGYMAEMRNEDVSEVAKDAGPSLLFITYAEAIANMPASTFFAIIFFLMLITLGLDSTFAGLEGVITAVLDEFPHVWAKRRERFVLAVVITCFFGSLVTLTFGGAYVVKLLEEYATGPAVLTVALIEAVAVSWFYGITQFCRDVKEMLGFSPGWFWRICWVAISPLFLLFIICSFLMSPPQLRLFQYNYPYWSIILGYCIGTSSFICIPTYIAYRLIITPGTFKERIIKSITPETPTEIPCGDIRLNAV
How it was run: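 Radioligand competition binding with scintillation detection; specific binding is total minus binding under excess unlabelled ligand. Reported as % of control specific binding or % inhibition; IC50 from Hill-equation non-linear regression of competition curves, and Ki via Cheng-Prusoff using radioligand concentration and Scatchard-derived KD.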

receptors D4.4 = target: T2, receptors D4.4 (Homo sapiens, UniProt P21917); experiment: Radioligand binding assay, dopaminergic D4 (D4.4) receptors; settings: test compound 1×10^−6 M
T2 sequence (P21917 1-419): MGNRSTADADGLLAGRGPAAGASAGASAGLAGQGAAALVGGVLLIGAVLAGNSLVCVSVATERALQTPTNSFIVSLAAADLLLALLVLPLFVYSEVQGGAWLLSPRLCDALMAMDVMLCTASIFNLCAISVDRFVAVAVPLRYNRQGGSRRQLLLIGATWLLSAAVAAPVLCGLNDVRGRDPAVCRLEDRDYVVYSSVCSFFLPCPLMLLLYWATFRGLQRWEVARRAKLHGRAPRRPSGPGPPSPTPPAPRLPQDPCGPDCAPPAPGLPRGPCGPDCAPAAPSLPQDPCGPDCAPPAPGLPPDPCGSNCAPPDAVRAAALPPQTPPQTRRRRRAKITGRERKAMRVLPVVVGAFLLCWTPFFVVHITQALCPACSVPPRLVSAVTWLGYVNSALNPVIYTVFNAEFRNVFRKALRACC
Description: (§1) The specific ligand binding to the receptors is defined as the difference between the total binding and the non-specific binding determined in the presence of the excess of unlabelled ligand.
(§2) The results are expressed as a percent of control specific binding ((measured specific binding/control specific binding)×100) and as a percent inhibition of control specific binding (100−((measured specific binding/control specific binding)×100)) obtained in the presence of the test compounds. The specific ligand binding to the receptors is defined as the difference between the total binding and the nonspecific binding determined in the presence of an excess of unlabelled ligand. Scintillation counting was the method of detection of ligand binding. The IC50 values (concentration causing a half-maximal inhibition of control specific binding) were determined by non-linear regression analysis of the competition curves generated with mean replicate values using Hill equation curve fitting (Y=D+[(A−D)/(1+(C/C50)nH)], where Y=specific binding, D=minimum specific binding, A=maximum specific binding, C=compound concentration, C50=IC50, and nH=slope factor). This analysis was performed using a software developed at Cerep (Hill software) and validated by comparison with data generated by the commercial software SigmaPlot® 4.0 for Windows® (© 1997 by SPSS Inc.). The inhibition constants (Ki) were calculated using the Cheng Prusoff equation (Ki=IC50/(1+(L/KD)), where L=concentration of radioligand in the assay, and KD=affinity of the radioligand for the receptor). A scatchard plot was used to determine the Kd.
Experimental conditions for tests are given in Table 1, the results of tests for representative compounds are given in Tables 2a and 2b (receptors D2 and D3) and in Table 3 (receptors D4).

[2] = target: dopaminergic receptors D3 (Homo sapiens, UniProt P35462); experiment: Radioligand binding assay, dopaminergic D3 receptors; settings: test compound 1×10^−6 M
Sequence of dopaminergic receptors D3 (P35462 whole entry): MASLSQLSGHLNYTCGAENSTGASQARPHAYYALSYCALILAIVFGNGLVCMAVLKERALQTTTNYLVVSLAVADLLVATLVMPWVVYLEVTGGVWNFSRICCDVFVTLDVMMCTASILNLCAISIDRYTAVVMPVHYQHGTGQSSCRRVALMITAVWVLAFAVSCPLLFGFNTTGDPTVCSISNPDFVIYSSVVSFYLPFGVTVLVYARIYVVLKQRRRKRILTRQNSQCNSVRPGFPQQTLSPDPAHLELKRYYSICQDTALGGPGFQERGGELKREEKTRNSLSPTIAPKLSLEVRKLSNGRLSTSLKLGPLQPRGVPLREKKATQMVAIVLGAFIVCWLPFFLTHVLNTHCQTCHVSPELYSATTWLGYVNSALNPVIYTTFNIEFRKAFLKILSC
How it was run: (§3)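 Competition radioligand binding at human D2, D3 and D4.4 receptors, detected by scintillation counting; nonspecific binding defined with excess unlabelled ligand. Results as percent inhibition of control specific binding; IC50 by Hill-equation nonlinear regression; Ki via Cheng-Prusoff, with radioligand KD from Scatchard plot.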

[3] = tested on: α1 adrenergic receptors (rat cerebral cortex); experiment: Radioligand binding assay, adrenergic α1 receptors; settings: test compound 1×10^−6 M
How it was run: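 Values derive from radioligand displacement, with non-specific binding defined by excess cold ligand and detection by scintillation. Hill-fit IC50s were converted to Ki via Cheng-Prusoff using Scatchard-derived Kd; percent inhibition of control specific binding also reported.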

5-HT2A receptor = target: T3, 5-HT2A receptor (Homo sapiens, UniProt P28223); experiment: Radioligand binding assay, serotoninergic 5-HT2A receptors; settings: for 5-HT2A [%] / inhibition at 1 µM: binding assay result in %, Table 5a; for Ki: read-out: Inhibition constants Ki, 5-HT2A
T3 construct: purchased PerkinElmer
T3 sequence (P28223 whole entry): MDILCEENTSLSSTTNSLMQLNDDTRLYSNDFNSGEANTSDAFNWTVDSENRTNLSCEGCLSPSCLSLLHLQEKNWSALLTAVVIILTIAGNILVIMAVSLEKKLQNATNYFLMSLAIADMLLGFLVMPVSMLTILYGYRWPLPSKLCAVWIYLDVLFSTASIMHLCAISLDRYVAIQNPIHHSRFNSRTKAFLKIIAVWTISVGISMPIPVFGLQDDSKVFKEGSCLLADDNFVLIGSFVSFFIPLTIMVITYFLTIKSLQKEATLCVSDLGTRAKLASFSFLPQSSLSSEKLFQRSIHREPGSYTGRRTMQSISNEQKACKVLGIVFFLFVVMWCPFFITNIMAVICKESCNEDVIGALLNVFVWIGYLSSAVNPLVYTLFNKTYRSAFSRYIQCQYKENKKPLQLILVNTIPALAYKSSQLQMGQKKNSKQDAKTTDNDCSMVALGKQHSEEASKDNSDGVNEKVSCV
How it was run: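 Radioligand competition binding with scintillation counting; nonspecific binding defined by excess unlabelled ligand. Data as percent inhibition of control specific binding. IC50 by Hill-equation fit of competition curves; Ki by Cheng-Prusoff, with radioligand Kd from Scatchard plot.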

[4] = target: T4, H1 histaminergic receptors (Homo sapiens, UniProt P35367); experiment: Radioligand binding assay, histaminergic H1 receptors; settings: human recombinant (HEK-293 cells), [3H]pyrilamine 1 nM
T4 construct: expressed in transfected cells; host or cells: HEK-293 cells
T4 sequence (P35367 whole entry): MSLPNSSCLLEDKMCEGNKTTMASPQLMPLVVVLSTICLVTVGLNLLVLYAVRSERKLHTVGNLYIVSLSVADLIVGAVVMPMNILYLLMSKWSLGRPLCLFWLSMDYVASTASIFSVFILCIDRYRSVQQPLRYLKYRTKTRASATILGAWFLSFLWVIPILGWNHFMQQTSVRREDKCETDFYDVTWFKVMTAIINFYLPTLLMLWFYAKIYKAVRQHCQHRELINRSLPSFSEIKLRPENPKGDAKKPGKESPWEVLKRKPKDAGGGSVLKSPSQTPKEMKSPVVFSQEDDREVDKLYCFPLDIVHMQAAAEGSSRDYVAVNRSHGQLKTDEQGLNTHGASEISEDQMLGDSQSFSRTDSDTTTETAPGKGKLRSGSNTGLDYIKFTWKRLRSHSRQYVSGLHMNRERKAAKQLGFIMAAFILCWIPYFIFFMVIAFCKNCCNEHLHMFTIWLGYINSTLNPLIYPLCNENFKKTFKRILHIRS
Description: as §1, §2
Experimental conditions for tests are given in Table 14, and results of tests for representative compounds are presented in Table 15.

5-HT6 receptor = target: T5, 5-HT6 receptor (Homo sapiens, UniProt P50406); experiment: Radioligand binding assay, serotoninergic 5-HT6 receptors; settings: for 5-HT6 [%] / inhibition at 1 µM: binding assay result in %, Table 5a; for Ki: read-out: Inhibition constants Ki, 5-HT6
T5 construct: purchased PerkinElmer
T5 sequence (P50406 whole entry): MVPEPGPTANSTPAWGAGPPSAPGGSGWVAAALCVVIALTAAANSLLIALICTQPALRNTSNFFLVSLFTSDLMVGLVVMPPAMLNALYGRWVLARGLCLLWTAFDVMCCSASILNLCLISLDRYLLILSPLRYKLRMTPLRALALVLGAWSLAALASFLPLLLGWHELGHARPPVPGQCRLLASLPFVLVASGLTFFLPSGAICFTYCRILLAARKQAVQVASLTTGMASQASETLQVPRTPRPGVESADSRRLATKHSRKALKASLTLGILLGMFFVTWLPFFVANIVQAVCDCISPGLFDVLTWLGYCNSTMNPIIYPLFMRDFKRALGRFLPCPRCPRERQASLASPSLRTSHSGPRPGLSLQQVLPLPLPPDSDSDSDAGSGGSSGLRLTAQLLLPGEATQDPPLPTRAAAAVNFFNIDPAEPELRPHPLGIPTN
How it was run: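 Values are Ki from Cheng–Prusoff, taking IC50 from Hill nonlinear regression of competition curves and KD from a Scatchard plot. Specific binding was total minus binding with excess unlabelled ligand. Radioligand displacement was detected by scintillation counting, and data were also reported as percent of control specific binding.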

M3 muscarinic receptors = target: T6, M3 muscarinic receptors (Homo sapiens, UniProt P20309); experiment: Radioligand binding assay, muscarinic M3 receptors; settings: test compound 1×10^−6 M
T6 construct: expressed in transfected cells; host or cells: CHO cells
T6 sequence (P20309 whole entry): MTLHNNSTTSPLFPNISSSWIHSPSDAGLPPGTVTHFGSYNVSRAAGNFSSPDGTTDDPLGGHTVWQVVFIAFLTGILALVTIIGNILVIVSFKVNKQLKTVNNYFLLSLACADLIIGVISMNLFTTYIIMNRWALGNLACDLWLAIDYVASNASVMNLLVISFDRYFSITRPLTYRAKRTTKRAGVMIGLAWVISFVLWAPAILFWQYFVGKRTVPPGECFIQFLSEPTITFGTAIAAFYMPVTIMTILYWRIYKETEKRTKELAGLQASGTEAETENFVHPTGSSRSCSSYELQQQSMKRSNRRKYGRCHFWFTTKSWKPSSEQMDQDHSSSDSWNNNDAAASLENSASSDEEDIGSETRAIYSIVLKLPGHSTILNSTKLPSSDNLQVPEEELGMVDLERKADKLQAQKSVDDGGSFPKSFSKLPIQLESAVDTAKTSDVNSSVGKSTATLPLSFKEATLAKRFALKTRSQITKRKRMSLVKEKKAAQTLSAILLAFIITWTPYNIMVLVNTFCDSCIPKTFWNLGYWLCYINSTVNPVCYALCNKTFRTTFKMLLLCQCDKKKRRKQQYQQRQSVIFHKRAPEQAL
Description: as §1, §2
Experimental conditions for tests are given in Table 10, and results of tests for representative compounds are given in Table 11.

[5] = target: dopaminergic receptors D2 (Homo sapiens, UniProt P14416); experiment: Radioligand binding assay, dopaminergic D2 receptors; settings: for D2 [%] / inhibition at 1 µM: binding assay, test compound 1×10^−6 M; for Ki: read-out: Inhibition constants Ki for D2 receptors, D2
Sequence of dopaminergic receptors D2 (P14416 whole entry): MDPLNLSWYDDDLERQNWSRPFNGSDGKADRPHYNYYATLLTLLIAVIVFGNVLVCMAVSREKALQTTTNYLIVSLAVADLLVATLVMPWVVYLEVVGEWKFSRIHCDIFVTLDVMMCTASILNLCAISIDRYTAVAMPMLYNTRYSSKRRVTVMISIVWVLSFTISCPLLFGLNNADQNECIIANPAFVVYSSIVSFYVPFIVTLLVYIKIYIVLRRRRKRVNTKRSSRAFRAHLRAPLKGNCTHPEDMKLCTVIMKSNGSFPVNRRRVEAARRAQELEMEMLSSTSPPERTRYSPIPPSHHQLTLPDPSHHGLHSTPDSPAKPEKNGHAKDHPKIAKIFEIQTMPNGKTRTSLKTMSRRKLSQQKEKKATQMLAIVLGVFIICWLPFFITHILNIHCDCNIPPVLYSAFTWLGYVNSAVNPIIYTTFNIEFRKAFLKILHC
How it was run: as §3

N-[[1-[2-[(2,2-Dimethyl-3H-benzofuran-7-yl)oxy]ethyl]azetidin-3-yl]methyl]-3-hydroxy-benzenesulphonamide [Compound 111]
SERT [%] [1]: 15% | D4.4 [%] (receptors D4.4): 61% | D3 [%] [2]: 87% | α1 [%] [3]: 68% | 5-HT2A [%] (5-HT2A receptor): 92% | H1 [%] [4]: 38% | 5-HT6 [%] (5-HT6 receptor): 41% | M3 [%] (M3 muscarinic receptors): 14% | D2 [%] [5]: 97%

O=S(=O)(NC1CCN(CCCc2noc3cc(F)ccc23)C1)c1ccc2ccccc2c1 (stereo not shown) [Compound 21, N-[1-[3-(6-Fluoro-1,2-benzoxazol-3-yl)propyl]pyrrolidin-3-yl]naphthalene-2-sulphonamide]
inhibition at 1 µM [1]: 59% | inhibition at 1 µM (receptors D4.4): 83% | inhibition at 1 µM [2]: 96% | α1 [%] [3]: 95% | inhibition at 1 µM (5-HT2A receptor): 100% | inhibition at 1 µM [4]: 57% | inhibition at 1 µM (5-HT6 receptor): 95% | inhibition at 1 µM (M3 muscarinic receptors): -11% | inhibition at 1 µM [5]: 100%

O=S(=O)(NC1CN(CCOc2cccc3[nH]ccc23)C1)c1cccc(Cl)c1 [Compound 47, 3-Chloro-N-[1-[2-(1H-indol-4-yloxy)ethyl]azetidin-3-yl]benzene-sulphonamide]
inhibition at 1 µM [1]: 6% | inhibition at 1 µM (receptors D4.4): 80% | inhibition at 1 µM [2]: 97% | α1 [%] [3]: 71% | inhibition at 1 µM (5-HT2A receptor): 80% | inhibition at 1 µM [4]: -3% | inhibition at 1 µM (5-HT6 receptor): 45% | inhibition at 1 µM (M3 muscarinic receptors): -8% | inhibition at 1 µM [5]: 83%

O=S(=O)(NC1CCN(CCCc2noc3cc(F)ccc23)C1)c1cccc2ccccc12 (stereo not shown) [Compound 20, N-[1-[3-(6-Fluoro-1,2-benzoxazol-3-yl)propyl]pyrrolidin-3-yl]naphthalene-1-sulphonamide]
inhibition at 1 µM [1]: 6% | inhibition at 1 µM (receptors D4.4): 100% | inhibition at 1 µM [2]: 69% | α1 [%] [3]: 86% | inhibition at 1 µM (5-HT2A receptor): 100% | inhibition at 1 µM [4]: 36% | inhibition at 1 µM (5-HT6 receptor): 97% | inhibition at 1 µM (M3 muscarinic receptors): -7% | inhibition at 1 µM [5]: 95%

Cc1cccc(S(=O)(=O)NC2CN(CCOc3cccc4c3OCCO4)C2)c1 [Compound 93, N-[1-[2-(2,3-Dihydro-1,4-benzodioxan-8-yloxy)ethyl]azetidin-3-yl]-3-methyl-benzenesulphonamide]
SERT [%] [1]: 23% | D4.4 [%] (receptors D4.4): 39% | D3 [%] [2]: 75% | α1 [%] [3]: 52% | 5-HT2A [%] (5-HT2A receptor): 72% | H1 [%] [4]: 34% | 5-HT6 [%] (5-HT6 receptor): 29% | M3 [%] (M3 muscarinic receptors): 1% | D2 [%] [5]: 78%

O=S(=O)(N[C@H]1CCN(CCCc2noc3cc(F)ccc23)C1)c1csc2ccccc12 [Compound 225, N-[(3S)-1-[3-(6-Fluoro-1,2-benzoxazol-3-yl)propyl]pyrrolidin-3-yl]benzothiophene-3-sulphonamide]
inhibition at 1 µM [1]: 77% | inhibition at 1 µM (receptors D4.4): 91% | inhibition at 1 µM [2]: 84% | α1 [%] [3]: 93% | Ki (5-HT2A receptor): 0.9 nM | inhibition at 1 µM [4]: 57% | inhibition at 1 µM (5-HT6 receptor): 99% | Ki (5-HT6 receptor): 1.6 nM | inhibition at 1 µM (M3 muscarinic receptors): 23% | inhibition at 1 µM [5]: 97% | Ki [5]: 9.2 nM

O=S(=O)(NC1CCN(CCCc2c[nH]c3ccc(F)cc23)C1)c1cccc2ccccc12 (stereo not shown) [Compound 79, N-[1-[3-(5-Fluoro-1H-indol-3-yl)propyl]pyrrolidin-3-yl]naphthalene-1-sulphonamide]
inhibition at 1 µM [1]: 105% | Ki ([1]; read-out: Inhibition constants Ki for SERT, SERT): 0.7 nM | inhibition at 1 µM (receptors D4.4): 92% | inhibition at 1 µM [2]: 97% | α1 [%] [3]: 37% | inhibition at 1 µM (5-HT2A receptor): 99% | inhibition at 1 µM [4]: 72% | inhibition at 1 µM (5-HT6 receptor): 86% | inhibition at 1 µM (M3 muscarinic receptors): -3% | inhibition at 1 µM [5]: 95%

COc1ccc2cc(S(=O)(=O)N[C@H]3CCN(CCCc4noc5cc(F)ccc45)C3)ccc2c1 [Compound 231, N-[(3S)-1-[3-(6-Fluoro-1,2-benzoxazol-3-yl)propyl]pyrrolidin-3-yl]-6-methoxy-naphthalene-2-sulphonamide]
inhibition at 1 µM [1]: 63% | inhibition at 1 µM (receptors D4.4): 89% | inhibition at 1 µM [2]: 91% | α1 [%] [3]: 79% | Ki (5-HT2A receptor): 1.9 nM | inhibition at 1 µM [4]: 54% | inhibition at 1 µM (5-HT6 receptor): 86% | Ki (5-HT6 receptor): 79 nM | inhibition at 1 µM (M3 muscarinic receptors): 22% | inhibition at 1 µM [5]: 95% | Ki [5]: 6.4 nM

O=S(=O)(NCC1CCN(CCCc2noc3cc(F)ccc23)C1)c1ccc2cc(Cl)ccc2c1 (stereo not shown) [Compound 237, 6-Chloro-N-[[1-[3-(6-fluoro-1,2-benzoxazol-3-yl)propyl]pyrrolidin-3-yl]methyl]naphthalene-2-sulphonamide]
inhibition at 1 µM [1]: 61% | inhibition at 1 µM (receptors D4.4): 48% | inhibition at 1 µM [2]: 89% | α1 [%] [3]: 88% | inhibition at 1 µM (5-HT2A receptor): 97% | inhibition at 1 µM [4]: 66% | inhibition at 1 µM (5-HT6 receptor): 87% | inhibition at 1 µM (M3 muscarinic receptors): 16% | inhibition at 1 µM [5]: 97%

O=S(=O)(NCC1CCN(CCOc2cccc3c2OCCO3)C1)c1cccc(F)c1 (stereo not shown) [Compound 298, N-[[1-[2-(2,3-Dihydro-1,4-benzodioxin-5-yloxy)ethyl]pyrrolidin-3-yl]-methyl]-3-fluoro-benzenesulphonamide]
inhibition at 1 µM [1]: 72% | inhibition at 1 µM (receptors D4.4): 48% | inhibition at 1 µM [2]: 35% | α1 [%] [3]: 77% | inhibition at 1 µM (5-HT2A receptor): 88% | inhibition at 1 µM [4]: 40% | inhibition at 1 µM (5-HT6 receptor): 40% | inhibition at 1 µM (M3 muscarinic receptors): 22% | inhibition at 1 µM [5]: 52%

Cc1cc(S(=O)(=O)N[C@@H]2CCN(CCCc3noc4cc(F)ccc34)C2)c(C)s1 [Compound 222, N-[(3R)-1-[3-(6-Fluoro-1,2-benzoxazol-3-yl)propyl]pyrrolidin-3-yl]-2,5-dimethyl-thiophene-3-sulphonamide]
inhibition at 1 µM [1]: 2% | inhibition at 1 µM (receptors D4.4): 98% | inhibition at 1 µM [2]: 74% | α1 [%] [3]: 92% | inhibition at 1 µM (5-HT2A receptor): 99% | inhibition at 1 µM [4]: 79% | inhibition at 1 µM (5-HT6 receptor): 94% | inhibition at 1 µM (M3 muscarinic receptors): 18% | inhibition at 1 µM [5]: 97%

Cc1c(S(=O)(=O)N[C@H]2CCN(CCCc3noc4cc(F)ccc34)C2)sc2ccc(Cl)cc12 [Compound 205, 5-Chloro-N-[(3S)-1-[3-(6-fluoro-1,2-benzoxazol-3-yl)propyl]pyrrolidin-3-yl]-3-methyl-benzothiophene-2-sulphonamide]
inhibition at 1 µM [1]: 45% | inhibition at 1 µM (receptors D4.4): 73% | inhibition at 1 µM [2]: 99% | α1 [%] [3]: 71% | Ki (5-HT2A receptor): 1.6 nM | inhibition at 1 µM [4]: 50% | inhibition at 1 µM (5-HT6 receptor): 94% | Ki (5-HT6 receptor): 41 nM | inhibition at 1 µM (M3 muscarinic receptors): 3% | inhibition at 1 µM [5]: 99% | Ki [5]: 1.6 nM
